The numbers were not newly measured in patent US20150216993A1 (priority 2012, published 2015), which cites them from elsewhere.

The subject of the series is organophosphate poisoning. As to conditions: in vivo.

As to `O/N=C/c1cc[n+](COC[n+]2ccc(/C=N/O)cc2)cc1` [obidoxime, obidoxime chloride], the “window of time in which the therapeutic is effective” value is reported as “about 10 minutes”.
